Source: patent publication US9226950B2, “Method and composition for treating diabetes mellitus” (National Dong Hwa University, priority 2013, dated 2016)

Columns and labels:
[1] = system: GLUT4; assay: GLUT4 translocation assay in differentiated C2C12 myotubes; type: cell-based, mouse; settings: FIG. 3
Procedure: Mouse muscle myoblast cells (C2C12) were obtained from the Food Industry Research and Development Institute (FIRDI, Hsinchu, Taiwan). The cells were grown and maintained in Dulbecco's Modified Eagle's Medium high glucose (DMEM-high glucose; GIBCO, CA, USA) containing 10% fetal bovine serum (FBS, GIBCO) and 1% penicillin streptomycin (GIBCO) in a cell culture incubator with 5% CO2 at 37° C. Prior to the following experiments, the cells were seeded and cultured at a density of 8×10^3 cells per well in 96-well plates or 2.5×10^5 cells per well in 6-well plates. […]
The C2C12 cells were fully differentiated with DMEM supplemented with 1% FBS and 1% horse serum for 4 days. […] The translocation changes of GLUT4 of the cells were detected. […] The HRP activity was determined by measuring the absorbance at 450 nm with a spectrophotometer (EnSpire 2300 Multilabel Reader, Perkin Elmer, Waltham, Mass., USA).
To detect the effect of tetracosanol on Glut4 translocation in S961-induced insulin resistance, the differentiated C2C12 cells were treated with or without 20 nM S961 (S961) followed by 185 μM of insulin (Ins), and treated with or without 100 μM of Tetracosanol (Tet) (n=4 in each group). […] At the cellular level, the ability of glucose uptake was determined by controlling the amount of the GLUT4 glucose transporter present in the plasma membrane. […]

[2] = system: AMPK; assay: Phosphorylation of AMPK on Thr172 in L6 cells, Western blot; type: cell-based, mouse; settings: 100 μM tetracosanol 90 min, then 10 μM insulin 30 min, FIG. 2
Procedure: (§1) […] muscle myoblast cells (L6) was a generous gift from Professor Hitoshi Ashida's Lab. (Kobe University, Kobe, Japan). The cells were grown and maintained in α-minimal essential medium (α-MEM, 12000022, GIBCO, CA, USA) containing 10% fetal bovine serum (FBS, GIBCO) and 1% penicillin streptomycin (GIBCO) in a cell culture incubator with 5% CO2 at 37° C. Prior to the following experiments, the cells were seeded and cultured at a density of 8×10^3 cells per well in 96-well plates or 2.5×10^5 cells per well in 6-well plates. After the myoblasts achieved 80% confluence, the cells were incubated for 5 days in the α-MEM supplemented with 2% FBS to induce differentiation to myotubes.
The L6 cells were fully differentiated with α-MEM supplemented with 2% FBS for 5 days to myotubes. […] The levels of the proteins including phospho-AKT (Thr308), AKT, phospho-AMPK (Thr172), and AMPK (Cell Signaling) were detected and evaluated by Western blot with primary antibody.
The cells after treatments were collected and washed twice in cold KRH buffer, and then lysed in ice-cold RIPA buffer incubation at 4° C. for 60 min. After centrifugation at 12,000×g for 30 min at 4° C., the supernatant was kept and quantified by Bradford protein assay (Bio-Rad, Hercules, Calif., USA). […] Acquired data were analyzed and compared the difference among treatments. […]

[3] = system: AKT; assay: Phosphorylation of AKT on Thr308 in L6 cells, Western blot; type: cell-based, rat; settings: FIG. 1(b)
Procedure: as §1
The L6 cells were fully differentiated with α-MEM supplemented with 2% FBS for 5 days to myotubes. The cells were washed twice with PBS containing 0.1% BSA and subsequently incubated α-MEM containing 0.25% BSA with or without 100 nM of S961, and then treated with or without 100 μM of Tetracosanol for 90 min. Then, the cells were treated with or without 10 μM of insulin for 30 min. Finally, the cells were collected and washed twice in KRH buffer, then lysed in ice-cold RIPA buffer for 60 min. After centrifugation at 12,000×g for 30 min. at 4° C., the supernatant was kept at −80° C. until use. The levels of the proteins including phospho-AKT (Thr308), AKT, phospho-AMPK (Thr172), and AMPK (Cell Signaling) were detected and evaluated by Western blot with primary antibody.
The cells after treatments were collected and washed twice in cold KRH buffer, and then lysed in ice-cold RIPA buffer incubation at 4° C. for 60 min. After centrifugation at 12,000×g for 30 min at 4° C., the supernatant was kept and quantified by Bradford protein assay (Bio-Rad, Hercules, Calif., USA). The proteins were separated using sodium dodecyl sulfate polyacrylamide gel electrophoresis (SDS-PAGE) and subsequently transferred to PVDF (Perkin Elmer Life Sciences, Boston, Mass., USA) membrane. […] The signals were monitored using Western Lightning™ Plus-ECL (Perkin Elmer Life Sciences) and the PVDF membrane was exposed to Luminescent image analyzer (LAS)-3000 (Fujifilm, Minato, Tokyo, Japan). Acquired data were analyzed and compared the difference among treatments.
The differentiated L6 cells were incubated with 100 μM of tetracosanol (Tet) at 37° C. for 90 min, and then treated 10 μM of insulin (Ins) at 37° C. for 5 or 30 min. The cell lysates were separated by SDS-PAGE and blotted 5 min for phospho-Insr on Tyr1158, 1162, and 1163 (Insr, 100 kDa), and phospho-AKT on Thr308 protein level was measured at 30 min in Western blot analysis.

CCCCCCCCCCCCCCCCCCCCCCCCO [tetracosanol]
insulin-dependent GLUT4 translocation ([1]; insulin resistance C2C12 differentiated myotubes induced by 20 nM S961, insulin plus tetracosanol (100 μM)): provided the recovery ability
insulin-dependent GLUT4 translocation ([1]; normal C2C12 differentiated myotubes (Ins), 100 μM tetracosanol, 185 μM insulin): no effects
insulin-independent GLUT4 translocation response (phospho-AMPK on Thr172) [2]: no insulin-independent GLUT4 translocation response
phospho-AKT on Thr 308 ([3]; 100 μM tetracosanol (Tet) alone, 90 min): did not
phospho-AKT on Thr 308 ([3]; insulin plus both S961 and tetracosanol (Ins+S961+Tet)): induced the phospho-AKT on Thr 308
phospho-AKT on Thr 308 ([3]; insulin plus tetracosanol (Ins+Tet): 100 μM tetracosanol 90 min, then 10 μM insulin 30 min): induced the phospho-AKT on Thr 308
